These results are taken from US9796706B2, “Inhibitors of Jun N-terminal kinase” (IMAGO PHARMACEUTICALS, INC., priority 2009, dated 2017).

Format in all cases: biochemical
Common to all, as to details: procedures of Example 14 (TR-FRET)

For one experiment, the target named is JNK3 (Homo sapiens (Human), UniProt P53779). Put plainly: JNK3 TR-FRET kinase assay (Example 14). The method, then: (§1) 14.3. Active JNK 1, 2 and 3 TR-FRET Assay
(§2) (1) Assay buffer #1 with 0.0025% Tween and 1 mM DTT was prepared using JNK buffer stock solution.
(§3) (2) Assay buffer #2 with 0.025% BSA was prepared using the assay buffer #1.
(§4) (3) Test compound solution preparation: 5× compound solution was prepared using assay buffer #1 with 5% DMSO. The compound solution (10 μl/well) was added to a 384-well plate (Corning, Cat No. 3654).
(§5) (4) aJNK1, 2 or 3 preparation: aJNK stock (100 μg/ml) at −80° C. was thawed on ice and an aJNK (1.6 ng/ml) solution was prepared using assay buffer #2. The aJNK solution (20 μl/well) was added to the plate and the plate was shaken. The enzyme was incubated with the compound at RT for 10 min. (5) ATP/substrate solution preparation: ATP and substrate stocks were thawed on ice. 2.5×ATP/substrate (e.g., 25 μM or 2.5 mM ATP/50 nM EPIW-1) was prepared using assay buffer #1. The ATP/substrate (20 μl/well) was added to the plate and the plate was shaken. The plate was incubated at RT for 15 min. Note: In an exemplary assay, the final ATP concentration was about 1 mM. (6) EDTA preparation: 30 mM EDTA was prepared using 0.5M EDTA stock and assay buffer #1. The EDTA (10 μl/well) was added to the plate to quench the enzyme reaction and the plate was shaken well. (7) Detection reagent preparation: Eu-63 and SA-XL stocks were thawed on ice. 4× Eu-63/SA-XL (2 nM Eu-63/9.4 nM SA-XL) was prepared using JNK detection buffer. The Eu-63/SA-XL solution (20 μl/well) was added to the plate and the plate was shaken. The plate was incubated at RT for 1 hr before reading the plate on LJL using ratiometric method named HTRF.
(§6) 14.4. Coupled JNK 1, 2 and 3 TR-FRET Assay
(§7) (1) Assay buffer with 0.0025% Tween, 0.01% BSA, and 1 mM DTT was prepared using JNK buffer stock solution.
(§8) (2) Test compound solution preparation: 5× compound solution, including EDTA background, was prepared using assay buffer with 5% DMSO. The compound solution (10 μl/well) was added to a 384-well plate (Corning, Cat No. 3654).
(§9) (3) uJNK1,2, or 3 activation reaction preparation: uJNK activation solution was prepared using assay buffer (1.6 ng/ml MKK4, 1.6 ng/ml MKK7, 16 ng/ml uJNK, and 20 uM ATP final). The uJNK activation solution (35 μl/well) was added to the plate, the plate was shaken, and the reaction mixture was incubated with compound at 30° C. for 60 min. (4) c-Jun substrate solution preparation: 50 nM EPIW-1, c-Jun peptide, was prepared using assay buffer (15 nM final). The EPIW-1 solution (15 μl/well) was added to the plate, the plate was shaken and incubated at 30° C. for 60 min. (5) EDTA preparation: 30 mM EDTA was prepared using 0.5M EDTA stock and assay buffer. The EDTA (10 μl/well) was added to the plate to quench the enzyme reaction and the plate was shaken well. (6) Detection reagent preparation: Eu-73 and SA-XL stocks were thawed on ice. 4× Eu-73/SA-XL (2 nM Eu-73/9.4 nM SA-XL) were prepared using JNK detection buffer. The Eu-73/SA-XL solution (20 μl/well) was added to the plate. The plate was shaken and incubated at RT for 1 hr before reading the plate on LJL using ratiometric method named HTRF.

The target of a further experiment is JNK1 (Homo sapiens (Human), UniProt P45983). Nature of the experiment: JNK1 TR-FRET kinase assay (Example 14). As to the method:
as §1, §2, §3, §4, §5, §6, §7, §8, §9
Background: In TR-FRET formats the signal depends on donor and acceptor labels being close together.

A further experiment concerns the target JNK2 (Homo sapiens (Human), UniProt P45984). Nature of the experiment: JNK2 TR-FRET kinase assay (Example 14). As to the method: as §1, §2, §3, §4, §5, §6, §7, §8, §9

Sequence of JNK3 (P53779 whole entry, species assumed): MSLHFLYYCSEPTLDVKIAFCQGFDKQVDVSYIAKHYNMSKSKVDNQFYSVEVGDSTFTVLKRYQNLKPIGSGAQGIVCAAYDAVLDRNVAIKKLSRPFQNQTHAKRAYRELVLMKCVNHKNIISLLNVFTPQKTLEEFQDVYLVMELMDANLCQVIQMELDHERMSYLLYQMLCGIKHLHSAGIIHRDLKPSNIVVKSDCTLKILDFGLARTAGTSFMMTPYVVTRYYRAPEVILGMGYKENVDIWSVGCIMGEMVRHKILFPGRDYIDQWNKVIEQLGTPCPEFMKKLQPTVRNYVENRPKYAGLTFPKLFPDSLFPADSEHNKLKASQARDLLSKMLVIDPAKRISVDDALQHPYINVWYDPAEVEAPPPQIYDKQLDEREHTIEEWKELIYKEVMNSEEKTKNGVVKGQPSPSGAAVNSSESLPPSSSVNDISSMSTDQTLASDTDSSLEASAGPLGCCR
Sequence of JNK1 (P45983 other isoform, or with tags, fused parts or gaps isoform P45983-2, species assumed): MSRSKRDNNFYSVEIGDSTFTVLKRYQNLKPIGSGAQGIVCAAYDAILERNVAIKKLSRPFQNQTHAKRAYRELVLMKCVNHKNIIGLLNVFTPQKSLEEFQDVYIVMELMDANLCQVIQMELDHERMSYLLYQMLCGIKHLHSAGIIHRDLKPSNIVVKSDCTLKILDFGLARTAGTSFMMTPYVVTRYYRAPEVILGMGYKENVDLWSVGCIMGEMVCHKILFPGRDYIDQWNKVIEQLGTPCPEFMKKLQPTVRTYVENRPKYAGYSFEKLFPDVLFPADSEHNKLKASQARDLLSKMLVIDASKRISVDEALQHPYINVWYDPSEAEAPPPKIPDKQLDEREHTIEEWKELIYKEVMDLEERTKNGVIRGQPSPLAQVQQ
Sequence of JNK2 (P45984 whole entry, species assumed): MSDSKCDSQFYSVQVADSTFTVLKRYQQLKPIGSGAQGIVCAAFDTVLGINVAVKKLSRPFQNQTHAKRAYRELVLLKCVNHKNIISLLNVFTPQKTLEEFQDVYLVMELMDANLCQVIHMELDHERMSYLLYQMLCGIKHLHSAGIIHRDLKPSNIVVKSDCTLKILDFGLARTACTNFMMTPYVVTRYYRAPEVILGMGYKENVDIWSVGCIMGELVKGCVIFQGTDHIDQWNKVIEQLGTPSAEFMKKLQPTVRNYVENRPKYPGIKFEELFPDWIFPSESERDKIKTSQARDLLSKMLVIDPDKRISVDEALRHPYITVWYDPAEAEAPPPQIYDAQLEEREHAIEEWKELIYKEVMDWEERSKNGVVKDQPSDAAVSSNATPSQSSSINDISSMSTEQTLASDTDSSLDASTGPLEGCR

Consider `Cc1n[nH]c(-c2sccc2NC(=O)Cc2ccc3c(c2)OCCO3)n1` [2-(2,3-dihydrobenzo[b][1,4]dioxin-6-yl)-N-(2-(3-methyl-1H-1,2,4-triazol-5-yl)thiophen-3-yl)acetamide], for which the 50% inhibitory concentration (IC50) against JNK3, against JNK1 and at JNK2 was 0.1 to 10 µM in each case.
`O=C(Cn1c(=O)ccc2cnccc21)Nc1ccsc1-c1cscn1` [2-(2-oxo-1,6-naphthyridin-1(2H)-yl)-N-(2-(thiazol-4-yl)thiophen-3-yl)acetamide]: the figures for the IC50 against JNK3, against JNK1 and against JNK2 were 0.1 to 10 µM, under 0.1 µM and 0.1 to 10 µM, respectively.
On to `O=C(CN1C(=O)CCc2cnccc21)Nc1ccsc1-c1cscn1` [2-(2-oxo-3,4-dihydro-1,6-naphthyridin-1(2H)-yl)-N-(2-(thiazol-4-yl)thiophen-3-yl)acetamide], for which the IC50 against JNK3, at JNK1 and on JNK2 was 0.1 to 10 µM in each case.
Turning to `O=C(CN1C(=O)CCc2ccccc21)Nc1ccsc1-c1cscn1` [2-(2-oxo-3,4-dihydroquinolin-1(2H)-yl)-N-(2-(thiazol-4-yl)thiophen-3-yl)acetamide], the IC50 at JNK3, against JNK1 and against JNK2 was 0.1 to 10 µM each time.
As for `O=C(Cn1c(=O)ccc2cc(C(F)(F)F)ccc21)Nc1ccsc1-c1cscn1` [2-(2-oxo-6-(trifluoromethyl)quinolin-1(2H)-yl)-N-(2-(thiazol-4-yl)thiophen-3-yl)acetamide], the half-maximal inhibitory concentration (IC50) on JNK3 is under 0.1 µM; on JNK1, under 0.1 µM; against JNK2, 0.1 to 10 µM.
For the molecule `O=C(Cc1cccc2ccccc12)Nc1ccsc1-c1ccccn1` [2-(2-pyridyl)-3-(1-naphthylacetylamino)thiophene], the IC50 at JNK3 lay in the range of 0.1 to 10 µM.
Regarding `Cc1csc(NC(=O)Cc2ccc(OCCn3ccnc3)cc2)c1-c1ncn[nH]1` [2-(4-(2-(1H-imidazol-1-yl)ethoxy)phenyl)-N-(4-methyl-3-(1H-1,2,4-triazol-5-yl)thiophen-2-yl)acetamide], the IC50 against JNK3, at JNK1 and on JNK2 was 0.1 to 10 µM throughout.
For `O=C(Cc1ccc(OCCCN2CCCCC2)cc1)Nc1ccsc1-c1cscn1` [2-(4-(3-(piperidin-1-yl)propoxy)phenyl)-N-(2-(thiazol-4-yl)thiophen-3-yl)acetamide], the IC50 against JNK3, at JNK1 and at JNK2 was 0.1 to 10 µM throughout.
Take `COc1ccc(CC(=O)Nc2ccsc2-c2cn(C)cn2)cc1` [2-(4-methoxyphenyl)-N-(2-(1-methyl-1H-imidazol-4-yl)thiophen-3-yl)acetamide]: the IC50 against JNK3 was over 10 µM; against JNK1 it was over 10 µM; on JNK2, over 50 µM.
On to `COc1ccc(CC(=O)Nc2ccsc2-c2c[nH]c(C)n2)cc1` [2-(4-methoxyphenyl)-N-(2-(2-methyl-1H-imidazol-4-yl)thiophen-3-yl)acetamide], for which the figures for the half-inhibitory concentration (IC50) at JNK3, at JNK1 and against JNK2 were over 10 µM, over 10 µM and over 50 µM, respectively.
With `COc1ccc(CC(=O)Nc2ccsc2N2CCOC2=O)cc1` [2-(4-methoxyphenyl)-N-(2-(2-oxooxazolidin-3-yl)thiophen-3-yl)acetamide], the IC50 against JNK3 was over 10 µM; against JNK1, over 50 µM; on JNK2, over 50 µM.
As for `COc1ccc(CC(=O)Nc2ccsc2-c2nc(-c3ccncc3)n[nH]2)cc1` [2-(4-methoxyphenyl)-N-(2-(3-(pyridin-4-yl)-1H-1,2,4-triazol-5-yl)thiophen-3-yl)acetamide], the concentration for half-maximal inhibition (IC50) was over 10 µM on JNK3, 0.1 to 10 µM against JNK1 and over 50 µM against JNK2.
For `COc1ccc(CC(=O)Nc2ccsc2-c2nc(C3CCCO3)n[nH]2)cc1` (centres unmarked) [2-(4-methoxyphenyl)-N-(2-(3-(tetrahydrofuran-2-yl)-1H-1,2,4-triazol-5-yl)thiophen-3-yl)acetamide] the same measures were 0.1 to 10 µM, 0.1 to 10 µM and 0.1 to 10 µM.
The molecule `COc1ccc(CC(=O)Nc2ccsc2-c2nc(C)n[nH]2)cc1` [2-(4-methoxyphenyl)-N-(2-(3-methyl-1H-1,2,4-triazol-5-yl)thiophen-3-yl)acetamide] returned an IC50 on JNK2 of 0.1 to 10 µM.
Consider `COc1ccc(CC(=O)Nc2ccsc2-c2ncco2)cc1` [2-(4-methoxyphenyl)-N-(2-(oxazol-2-yl)thiophen-3-yl)acetamide], for which the IC50 on JNK2 is over 10 µM.
Consider `Cn1ncnc1-c1ncsc1NC(=O)Cc1cccc2cnccc12` [2-(isoquinolin-5-yl)-N-(4-(1-methyl-1H-1,2,4-triazol-5-yl)thiazol-5-yl)acetamide], for which the IC50 against JNK2 fell in the range of 0.1 to 10 µM.
Same read-out and setting: the value for `O=C(Cc1ccc2c(c1)OCCO2)Nc1ccsc1-c1ncn[nH]1` [N-(2-(1H-1,2,4-triazol-5-yl)thiophen-3-yl)-2-(2,3-dihydrobenzo[b][1,4]dioxin-6-yl)acetamide] was 0.1 to 10 µM; that for `O=C(Cc1cccc2ccccc12)Nc1ccsc1-c1cc[nH]n1` [N-(2-(1H-pyrazol-3-yl)thiophen-3-yl)-2-(naphthalen-1-yl)acetamide] was over 50 µM; that for `COc1ccc(CC(=O)Nc2ccsc2-c2nc(N)n[nH]2)cc1` [N-(2-(3-amino-1H-1,2,4-triazol-5-yl)thiophen-3-yl)-2-(4-methoxyphenyl)acetamide] was 0.1 to 10 µM.
On the same count and under the same terms, next, `Cc1noc(-c2sccc2NC(=O)Cc2cccc3ccccc23)n1` [N-(2-(3-methyl-1,2,4-oxadiazol-5-yl)thiophen-3-yl)-2-(naphthalen-1-yl)acetamide]: over 50 µM; `Cc1n[nH]c(-c2sccc2NC(=O)Cc2ccc(N3CCCC3=O)cc2)n1` [N-(2-(3-methyl-1H-1,2,4-triazol-5-yl)thiophen-3-yl)-2-(4-(2-oxopyrrolidin-1-yl)phenyl)acetamide]: 0.1 to 10 µM; `Cc1cc(-c2sccc2NC(=O)Cc2cccc3ccccc23)n[nH]1` [N-(2-(5-methyl-1H-pyrazol-3-yl)thiophen-3-yl)-2-(naphthalen-1-yl)acetamide]: over 50 µM.
`COc1ccc(CC(=O)Nc2sccc2-c2nn[nH]n2)cc1` [N-(3-(2H-tetrazol-5-yl)thiophen-2-yl)-2-(4-methoxyphenyl)-acetamide] returned an IC50 against JNK2 of over 50 µM.
On to `O=C(Cc1cccc2cccnc12)Nc1scc(Br)c1-c1ncn[nH]1` [N-(4-bromo-3-(1H-1,2,4-triazol-5-yl)thiophen-2-yl)-2-(quinolin-8-yl)acetamide], for which the IC50 against JNK3 and at JNK2 was 0.1 to 10 µM each time.
Take `Cc1csc(NC(=O)CN2C(=O)CCc3ccccc32)c1-c1ncn[nH]1` [N-(4-methyl-3-(1H-1,2,4-triazol-5-yl)thiophen-2-yl)-2-(2-oxo-3,4-dihydroquinolin-1(2H)-yl)acetamide]: the IC50 against JNK3 and on JNK1 was under 0.1 µM throughout.
`Cc1csc(NC(=O)Cc2cccc3ncccc23)c1-c1ncn[nH]1` [N-(4-methyl-3-(1H-1,2,4-triazol-5-yl)thiophen-2-yl)-2-(quinolin-5-yl)acetamide] returned an IC50 against JNK2 of 0.1 to 10 µM.
In turn, `Cc1nnc(-c2c(C)csc2NC(=O)Cc2ccc(-c3ccncc3)cc2)[nH]1` [N-(4-methyl-3-(5-methyl-4H-1,2,4-triazol-3-yl)thiophen-2-yl)-2-(4-(pyridin-4-yl)phenyl)acetamide] displayed an IC50 against JNK3 of 0.1 to 10 µM.

The term IC50 denotes the concentration needed to halve the response being measured. Higher therefore signals weaker potency.
